From patent publication US11667602B2, “Compounds and their use” (AstraZeneca AB, priority 2020, dated 2023)
≈ marks a conversion by molar mass, not a printed value.

Tests used:
[1] = Rat Hepatocyte Stability (Test E); format: in vitro ADME; details: rat, hepatocytes, geometric mean if run multiple times
In short: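 Run per the published AstraZeneca-type rat hepatocyte stability protocol (Wernevik et al. panel). Values are mean intrinsic clearance, Clint in μl/min/10^6 cells; geometric mean used for repeated runs.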

[2] = Human Hepatocyte Stability (Test D); format: in vitro ADME; details: human, cryopreserved pooled human hepatocytes (LiverPool 10-Donor), geometric mean if run multiple times
Procedure: Human Hepatocyte Stability (Test D)
The metabolic stability of compounds in human hepatocytes was assessed using the following protocol:
1. Prepare 10 mM stock solutions of compound and control compounds in appropriate solvent (DMSO). Place incubation medium (L-15 Medium) in a 37° C. water bath, and allow warming for at least 15 minutes prior to use.
2. Add 80 μL of acetonitrile to each well of the 96-well deep well plate (“Quenching plate”).
3. In a new 96-well plate, dilute the 10 mM test compounds and the control compounds to 100 μM by combining 198 μL of acetonitrile and 2 μL of 10 mM stock solution.
4. Remove a vial of cryopreserved (less than −150° C.) human hepatocytes (LiverPool™ 10-Donor Human hepatocytes obtained from Bioreclamation IVT (Product No. S01205)) from storage, ensuring that vials remain at cryogenic temperatures until thawing process ensues. As quickly as possible, thaw the cells by placing the vial in a 37° C. water bath and gently shaking the vials. Vials should remain in water bath until all ice crystals have dissolved and are no longer visible. After thawing is complete, spray vial with 70% ethanol, transfer the vial to a bio-safety cabinet.
5. Open the vial and pour the contents into the 50 mL conical tube containing thawing medium. Place the 50 mL conical tube into a centrifuge and spin at 100 g for 10 minutes (room temperature).
6. Using Cellometer® Vision, count cells and determine the viable cell density. Cells with poor viability (<80% viability) are not acceptable for use.
7. Transfer 247.5 μL of hepatocytes into each well of a 96-well cell incubation plate. Place the plate on Eppendorf Thermomixer Comfort plate shaker to allow the hepatocytes to warm for 10 minutes.
8. Add 2.5 μL of 100 μM test compound or control compounds into an incubation well containing cells to initiate the reaction.
9. Incubate the plate at 37° C. and 900 rpm on an Eppendorf Thermomixer Comfort plate shaker.
10. Centrifuge the quenching plates for 20 minutes at 4,000 rpm. Transfer 30 μL of supernatant of each compound into a 96-well analysis plate. 4 compounds are pooled together into one cassette. Then dilute the pooled sample by adding of 180 μl of pure water. All incubations are performed in singlicate.
All calculations were carried out using Microsoft Excel. Peak areas were determined from extracted ion chromatograms. In vitro intrinsic clearance (in vitro Clint, in μL/min/10^6 cells) of parent compound was determined by regression analysis of the Ln percent parent disappearance vs. time curve. The in vitro intrinsic clearance (in vitro Clint, in μL/min/10^6 cells) reported in Table 36, and was determined from the slope value using the following equation: in vitro Clint=kV/N
V=incubation volume (0.25 mL);
N=number of hepatocytes per well (0.25×10^6 cells)
Where the assay was run multiple times for the same compound, the geometric mean is reported.

[3] = Human Liver Microsomal Stability (Test C); format: in vitro ADME; details: human, liver microsomes
In short: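 Human liver microsome incubation per the Wernevik et al. integrated DMPK panel protocol. Intrinsic clearance reported as CLint in μl/min/mg protein, averaged arithmetically over repeat runs.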

Solubility (Test F) = format: physicochemical; details: arithmetic mean if run multiple times
Procedure: The assay was conducted according to the Solubility Assay described in pages 164-167 of Wernevik, J. et al., “A Fully Integrated Assay Panel for Early Drug Metabolism and Pharmacokinetics Profiling”, Assay and Drug Development Technologies, 2020, 18(4), 157-179. Data are reported in Table 36 as solubility ([…]. Where the assay was run multiple times for the same compound, the arithmetic mean is reported.

[4] = Human Plasma Protein Binding (Test B); format: in vitro ADME; details: fraction unbound (fu)
In short: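 Human plasma protein binding run per the published Wernevik et al. (2020) integrated DMPK panel protocol. Values are fraction unbound (fu, % free); repeat runs averaged arithmetically.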

human RXFP1 = biological target: T1, human RXFP1 (Homo sapiens, UniProt Q9HBX9); test: RXFP1 Hu cAMP (Test A); format: cell-based; design: expressed in transfected cells; host or cells: Jump-In T-REx CHO-K1 cells (ThermoFisher), induced with 10 ng/ml doxycycline for 24 h; details: RXFP1 Hu cAMP; for EC50: read-out: Test A EC50
T1 sequence (Q9HBX9 1-757): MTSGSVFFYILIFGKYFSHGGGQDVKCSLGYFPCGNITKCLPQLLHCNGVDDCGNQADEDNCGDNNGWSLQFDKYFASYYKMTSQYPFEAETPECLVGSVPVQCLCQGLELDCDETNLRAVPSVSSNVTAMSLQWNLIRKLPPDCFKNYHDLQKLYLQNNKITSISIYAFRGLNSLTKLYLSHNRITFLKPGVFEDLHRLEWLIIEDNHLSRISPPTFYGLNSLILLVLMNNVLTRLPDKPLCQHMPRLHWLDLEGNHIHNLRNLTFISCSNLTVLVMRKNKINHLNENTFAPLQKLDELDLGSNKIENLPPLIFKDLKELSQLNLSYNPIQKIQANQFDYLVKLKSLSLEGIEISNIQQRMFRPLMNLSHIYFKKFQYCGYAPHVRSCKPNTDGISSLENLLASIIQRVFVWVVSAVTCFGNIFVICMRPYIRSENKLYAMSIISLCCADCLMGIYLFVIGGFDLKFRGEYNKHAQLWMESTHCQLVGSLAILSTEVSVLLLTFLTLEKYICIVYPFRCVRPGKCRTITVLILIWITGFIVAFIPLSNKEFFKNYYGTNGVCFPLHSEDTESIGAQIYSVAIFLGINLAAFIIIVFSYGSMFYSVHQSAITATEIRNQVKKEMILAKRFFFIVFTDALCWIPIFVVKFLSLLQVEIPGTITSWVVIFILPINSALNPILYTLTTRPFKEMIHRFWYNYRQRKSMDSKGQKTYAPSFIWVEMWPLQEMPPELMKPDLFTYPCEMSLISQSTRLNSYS
In short: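 Read-out is HTRF signal, inversely proportional to cAMP, converted to cAMP amount by standard curve. Stimulation occurred in inducible CHO-K1 cells expressing the human receptor with phosphodiesterases blocked by 0.5 mM IBMX.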

hepatocyte CLint [1] | hepatocyte CLint at 1 µM [2] | microsomal CLint [3] | solubility (Solubility (Test F)) | Test B Human Plasma Protein Binding (% free) [4] | Test A Sinf (human RXFP1) | EC50 (human RXFP1) | Structure (SMILES)
11 µL/min/1e6 cells | 8 µL/min/1e6 cells | 5.8 µL/min/mg | 910 µM (≈ 491 µg/mL) | 6 % free |  |  | COc1cc(C#N)c(O[C@H]2CC[C@@](C)(C(=O)O)CC2)cc1C(=O)N[C@@H]1[C@@H]2CC[C@@H](C2)[C@@H]1C(=O)NCC(C)(C)C [Example 389]
16 µL/min/1e6 cells | 5.1 µL/min/1e6 cells | 23 µL/min/mg | 1000 µM (≈ 577 µg/mL) | 3.9 % free |  |  | COc1cc(C(F)F)c(O[C@H]2CC[C@@](C)(C(=O)O)CC2)cc1C(=O)N[C@@H]1[C@H]2CC[C@H](C2)[C@@H]1C(=O)NCC1(C)CCC1 [Example 373]
55 µL/min/1e6 cells | 49 µL/min/1e6 cells | 34 µL/min/mg | 680 µM (≈ 375 µg/mL) | 3.4 % free |  |  | COc1cc(C#N)c(O[C@H]2CC[C@@](C)(C(=O)O)CC2)cc1C(=O)N[C@@H]1[C@@H]2CC[C@@H](C2)[C@@H]1C(=O)NCC1(C)CCC1 [Example 388]
19 µL/min/1e6 cells | 6.2 µL/min/1e6 cells | < 5.1 µL/min/mg | > 1000 µM | 11 % free |  |  | COc1cc(F)c(O[C@H]2CC[C@@](CO)(C(=O)O)CC2)cc1C(=O)N[C@@H]1[C@H]2CC[C@H](C2)[C@@H]1C(=O)NCC1(C)CCC1 [Example 364]
7.2 µL/min/1e6 cells | 5.8 µL/min/1e6 cells | 33 µL/min/mg | 22 µM (≈ 12 µg/mL) | 6.9 % free |  |  | COc1cc(F)c(O[C@H]2CC[C@@](C)(C(=O)O)CC2)cc1C(=O)N[C@@H]1[C@H]2CC[C@H](C2)[C@@H]1C(=O)N[C@H](C)C(C)(C)C [Example 36, (1S,4s)-4-(5-(((1S,2R,3S,4R)-3-(((R)-3,3-Dimethylbutan-2-yl)carbamoyl)bicyclo[2.2.1]heptan-2-yl)carbamoyl)-2-fluoro-4-methoxyphenoxy)-1-methylcyclohexane-1-carboxylic acid]
8.8 µL/min/1e6 cells | 9.4 µL/min/1e6 cells | 68 µL/min/mg |  | <0.34 % free | 103% | 110 nM | COc1cc(F)c(-c2ccc(CCC(N)(CO)CO)c(F)c2)cc1C(=O)N[C@@H]1[C@H]2CC[C@H](C2)[C@@H]1C(=O)Nc1cccc(S(=O)(=O)C(F)(F)F)c1 [Example 266, (1R,2S,3R,4S)-3-(4′-(3-Amino-4-hydroxy-3-(hydroxymethyl)butyl)-3′,6-difluoro-4-methoxy-[1,1′-biphenyl]-3-carboxamido)-N-(3-((trifluoromethyl)sulfonyl)phenyl)bicyclo[2.2.1]heptane-2-carboxamide]
12 µL/min/1e6 cells | 6.7 µL/min/1e6 cells | 37 µL/min/mg | 53 µM (≈ 28.2 µg/mL) | 1.4 % free |  |  | CC1(CNC(=O)[C@H]2[C@@H]3CC[C@@H](C3)[C@H]2NC(=O)c2cc(O[C@H]3CC[C@@](C)(C(=O)O)CC3)c(F)cc2F)CCC1 [Example 393, (1S,4s)-4-(2,4-Difluoro-5-(((1S,2R,3S,4R)-3-(((1-methylcyclobutyl)methyl)carbamoyl)bicyclo[2.2.1]heptan-2-yl)carbamoyl)phenoxy)-1-methylcyclohexane-1-carboxylic acid]
9 µL/min/1e6 cells | 4.2 µL/min/1e6 cells | 13 µL/min/mg | 38 µM (≈ 22.3 µg/mL) | 5.6 % free |  |  | COc1cc(F)c(O[C@H]2CC[C@@](C)(C(=O)O)CC2)cc1C(=O)N[C@@H]1[C@H]2CC[C@H](C2)[C@@H]1C(=O)NCC(C)(C)C(F)(F)F [Example 38, (1S,4s)-4-(2-Fluoro-4-methoxy-5-(((1S,2R,3S,4R)-3-((3,3,3-trifluoro-2,2-dimethylpropyl)carbamoyl)bicyclo[2.2.1]heptan-2-yl)carbamoyl)phenoxy)-1-methylcyclohexane-1-carboxylic acid]
10 µL/min/1e6 cells | 26 µL/min/1e6 cells | 34 µL/min/mg | 560 µM (≈ 325 µg/mL) | 3.5 % free |  |  | CC1(CNC(=O)[C@H]2[C@@H]3CC[C@@H](C3)[C@H]2NC(=O)c2cc(O[C@H]3CC[C@@](C)(C(=O)O)CC3)c(F)cc2OC(F)F)CCC1 [Example 207, (1S,4s)-4-(4-(Difluoromethoxy)-2-fluoro-5-(((1S,2R,3S,4R)-3-(((1-methylcyclobutyl)methyl)carbamoyl)bicyclo[2.2.1]heptan-2-yl)carbamoyl)phenoxy)-1-methylcyclohexane-1-carboxylic acid]
21 µL/min/1e6 cells | 49 µL/min/1e6 cells | 20 µL/min/mg | 280 µM (≈ 157 µg/mL) | 0.48 % free |  |  | COc1cc(Cl)c(O[C@H]2CC[C@@](C)(C(=O)O)CC2)cc1C(=O)N[C@@H]1[C@@H]2CC[C@@H](C2)[C@@H]1C(=O)NCC1(C)CCC1 [Example 410]
19 µL/min/1e6 cells | < 1 µL/min/1e6 cells | 5.7 µL/min/mg | 880 µM (≈ 456 µg/mL) | 4.8 % free |  |  | COc1cc(F)c(O[C@H]2CC[C@@](C)(C(=O)O)CC2)cc1C(=O)N[C@@H]1[C@H]2CC[C@H](C2)[C@@H]1C(=O)NCC(C)C [Example 34, (1S,4s)-4-(2-Fluoro-5-(((1S,2R,3S,4R)-3-(isobutylcarbamoyl)bicyclo[2.2.1]heptan-2-yl)carbamoyl)-4-methoxyphenoxy)-1-methylcyclohexane-1-carboxylic acid]
38 µL/min/1e6 cells | 13 µL/min/1e6 cells |  | 340 µM (≈ 223 µg/mL) | 0.26 % free | 105% | 3 nM | COc1cc(F)c(O[C@H]2CC[C@@](C)(C(=O)O)CC2)cc1C(=O)N[C@@H]1CCC[C@@H]1C(=O)Nc1ccc(F)c(S(F)(F)(F)(F)F)c1 [Example 352]
